# In patent US20240336659A1, “CELL-PENETRATING PEPTIDE, ANTI-CANCER PEPTIDE, AND PHARMACEUTICAL COMPOSITION FOR PREVENTING OR TREATING CANCER, COMPRISING SAME” (ONECUREGEN CO., LTD., priority 2021, published 2024):
# Positions of bridges follow the written chain, without caps; N, C: chain ends. Residues, ends and D or L forms follow the SMILES beside them. No end group written: not given here.
# Legend:
# [1] = tested on: stomach cancer cell line NUGC3; experiment: Cell growth inhibition (sulforhodamine B staining); format: cell-based; settings: for cancer cell growth inhibitory effect: NUGC3, 10 μM screening of Table 4 peptides; for cancer cell growth inhibitory efficacy: NUGC3, treated for each concentration; for cell permeability (as concluded from the growth inhibition screening): NUGC3, 10 μM screening
# Experimental: (§1) Specifically, in order to confirm cell growth ability, a stomach cancer cell line NUGC3 and a breast cancer cell line SK-BR-3 were each subcultured in a 96-well plate, and the next day, peptide fragments Con, 7, and CC of Table 2 were treated with 100 μM each to the cell lines. After 72 hours, the cells were immobilized with a 10% trichloroacetic acid solution, and then stained the cell with a 0.4% sulforhodamine B solution for 1 hour, washed with acetic acid, and dried. Thereafter, the dried cells were dissolved in a 10 mM Tris solution and absorbance was measured at 510 nm using an ELISA plate reader.
# In order to compare the cancer cell growth inhibitory effects of cancer therapeutic peptides according to cell-penetrating peptides, the stomach cancer cell line NUGC3 was treated with 10 μM each of cancer therapeutic peptide fragments in Table 4, and the cancer cell growth inhibitory effects were screened in the same manner as in Example 1.
# Specifically, in order to confirm the cancer cell inhibition enhancing effect by enhancing the cell permeability of OCP5 among the novel synthesized CPPs, a cancer therapeutic peptide fragment represented by SEQ ID NO: 6 including the existing TAT and a cancer therapeutic peptide fragment represented by SEQ ID NO: 31 including the novel synthesized OCP5 were used. The stomach cancer cell lines NUGC3 and AGS, the breast cancer cell line SK-BR-3, and the pancreatic cancer cell line Capan-1 were treated with 25 μM SEQ ID NO: 6 and 100 μM SEQ ID NO: 31 for 72 hours, respectively, and the cancer cell growth inhibitory effects were compared in the same manner as in Example 1. […] Through this, it was confirmed that the novel CPP may be applied more effectively than the existing TAT to inhibit the cancer cell growth by the anticancer peptides.
# (§2) To analyze the cancer cell growth inhibitory effect according to a length of the anticancer peptide fragment, OCP9-VGLLIS84-7 (SEQ ID NO: 43), OCP9-VGLLIS84-9CC (SEQ ID NO: 46), and OCP9-VGLLIS84-15 (SEQ ID NO: 49) were treated for each concentration to analyze the growth inhibitory effects of stomach cancer cell lines NUGC3 and NCI-N87. When stomach cancer cells were treated with cancer therapeutic peptides, the cancer cell growth inhibitory efficacy was shown in a concentration-dependent manner. In addition, it was confirmed that the growth inhibitory effect on the stomach cancer cell lines increased as the length of the anticancer peptide fragment increased (FIG. 7).
# Specifically, the cancer cell growth inhibitory effect according to partial or entire cyclization of the anticancer peptide fragment was analyzed. The stomach cancer cell line NUGC3 was treated with a CPP fragment OCP9 (SEQ ID NO: 16), a partially cyclized sequence […] (SEQ ID NO: 33), or a sequence OCP9-VGLLIS84-7CC (SEQ ID NO: 40) including an entirely cyclized anticancer peptide at different concentrations of 1, 2.5, 5, 10, and 20 μM, respectively, and the cancer cell growth inhibitory effects were compared in the same manner as in Example 1.
# [2] = tested on: lung normal cell line WI38; settings: WI38, 30 μM and 60 μM
# Experimental: (§3) To analyze the cytotoxicity of cell therapeutic peptide fragments on normal cell lines, lung normal cell lines WI38 and CCD39 were treated with OCP9 (SEQ ID NO: 16), OCP9-VGLLIS84-7CC (SEQ ID NO: 44), OCP9-VGLLIS84-9CC (SEQ ID NO: 46) and OCP9-VGLL1S84-11CC (SEQ ID NO: 48) at 30 μM and 60 μM, respectively, and the growth degrees of the cell lines were evaluated.
# [3] = tested on: lung normal cell line CCD39; settings: CCD39, 30 μM and 60 μM
# Experimental: as §3
# cell line NUGC3 = experiment: Cell permeability of FITC-conjugated peptides by FACS; format: cell-based; settings: NUGC3, 1.5 or 2.5 μM FITC-conjugated peptide, 3 hours; compared to TAT
# Experimental: To quantitatively measure the cell permeability of the novel synthesized cell-penetrating peptides, 1.5 or 2.5 μM FITC-conjugated peptides were administered to the cell line NUGC3 or the normal cell line WI38, and after 3 hours, the amounts of FITC present in the cells were measured by FACS.
# [4] = tested on: stomach cancer cell line NCI-N87; experiment: Cell growth inhibition (sulforhodamine B staining); format: cell-based; settings: NCI-N87, treated for each concentration
# Experimental: as §1, §2
# [5] = tested on: stomach cancer cell lines NUGC3; experiment: Mouse xenograft experiment (tumor formation); format: in vivo, Balb-c/nude mouse; settings: intraperitoneally 10 mg/kg once a day
# Experimental: A mouse xenograft experiment was performed to analyze a tumor formation inhibitory effect of cancer therapeutic peptide fragments. Specifically, 5×10^6 stomach cancer cell lines NUGC3 were transplanted by subcutaneous injection into a flank site of a 6-week-old female Balb-c/nude mouse, and after one week (average tumor size 100 mm^3), Vehicle (0.9% saline), OCP5 (SEQ ID NO: 12), OCP5-VGLL1S84-15C (SEQ ID NO: 29), or OCP5-VGLL1S84-7C (SEQ ID NO: 33) was each administered intraperitoneally at 10 mg/kg once a day. Tumor size was measured with a digital caliper at 2-day intervals from the start of drug administration, and the tumor size (tumor size (mm^3)=long axis x short axis2) was calculated. The experiment was terminated when the average tumor size of the OCP5-administered group was 1,000 mm3, and then the tumor was extracted, and the tumor weight was measured.
compound,measurement,setting,value
KKKKRKVSIRGD (OCP17),cancer cell growth inhibitory effect,[1],excluding
KKKKRKVRGDSI (OCP15),cancer cell growth inhibitory effect,[1],excluding
"CC[C@H](C)[C@@H]1NC(=O)[C@H](CCCNC(=N)N)NC(=O)[C@H](Cc2ccccc2)NC(=O)[C@H]([C@@H](C)CC)NC(=O)[C@H]([C@@H](C)CC)NC(=O)[C@H](CO)NC(=O)[C@@H](N)CSSC[C@@H](C(=O)O)NC(=O)[C@H](CCCCN)NC(=O)[C@H]([C@@H](C)O)NC(=O)[C@H](Cc2c[nH]c3ccccc23)NC(=O)[C@@H]2CCCN2C(=O)[C@H](CO)NC(=O)[C@H](CO)NC(=O)[C@H](Cc2ccc(O)cc2)NC(=O)[C@H](CCCNC(=N)N)NC(=O)[C@H](Cc2c[nH]c3ccccc23)NC(=O)[C@H](CCCNC(=N)N)NC(=O)[C@H](CCCNC(=N)N)NC(=O)[C@H](CCCNC(=N)N)NC(=O)[C@H](CCCNC(=N)N)NC(=O)[C@H](CCCNC(=N)N)NC(=O)[C@H](Cc2ccccc2)NC1=O [OCP9-VGLL1S84-9CC, CSIIFRIFRRRRR-WRYSSPWTKC] (HELM PEPTIDE1{C.S.I.I.F.R.I.F.R.R.R.R.R.W.R.Y.S.S.P.W.T.K.C}$PEPTIDE1,PEPTIDE1,1:R3-23:R3$$$V2.0)",cytotoxicity (growth inhibitory or abnormal effect),[2],no cytotoxicity
same,cytotoxicity (growth inhibitory or abnormal effect),[3],no cytotoxicity
SIIFRIFRRRRR (OCP9),intracellular permeability (amount of FITC in the cells),cell line NUGC3,significantly increased
KKKKRKVSIIFRIF (OCP18),intracellular permeability (amount of FITC in the cells),cell line NUGC3,significantly increased
SIIFRIFLHLQK-CYSSPWTKC (SIIFRIFLHLQKCYSSPWTKC; disulfide 13-21) [SEQ ID NO: 31],cancer cell growth inhibitory effect,[1],significant cancer cell growth inhibitory effect
SIIFRIFRRRRR-PNQWRYSSPWTKPQP (SIIFRIFRRRRRPNQWRYSSPWTKPQP; OCP9-VGLL1S84-15) [OCP9-VGLLIS84-15],cancer cell growth inhibitory efficacy,[4],concentration-dependent
same,cancer cell growth inhibitory efficacy,[1],concentration-dependent
RRRRRSIIFRGD (OCP12),cancer cell growth inhibitory effect,[1],excluding
"CC[C@H](C)[C@@H]1NC(=O)[C@H](CCCNC(=N)N)NC(=O)[C@H](Cc2ccccc2)NC(=O)[C@H]([C@@H](C)CC)NC(=O)[C@H]([C@@H](C)CC)NC(=O)[C@H](CO)NC(=O)[C@@H](N)CSSC[C@@H](C(=O)O)NC(=O)[C@H](CCCCN)NC(=O)[C@H]([C@@H](C)O)NC(=O)[C@H](Cc2c[nH]c3ccccc23)NC(=O)[C@@H]2CCCN2C(=O)[C@H](CO)NC(=O)[C@H](CO)NC(=O)[C@H](Cc2ccc(O)cc2)NC(=O)[C@H](CCCNC(=N)N)NC(=O)[C@H](Cc2c[nH]c3ccccc23)NC(=O)[C@H](CCC(N)=O)NC(=O)[C@H](CC(N)=O)NC(=O)[C@H](CCCNC(=N)N)NC(=O)[C@H](CCCNC(=N)N)NC(=O)[C@H](CCCNC(=N)N)NC(=O)[C@H](CCCNC(=N)N)NC(=O)[C@H](CCCNC(=N)N)NC(=O)[C@H](Cc2ccccc2)NC1=O [OCP9-VGLL1S84-11CC, CSIIFRIFRRRRR-NQWRYSSPWTKC] (HELM PEPTIDE1{C.S.I.I.F.R.I.F.R.R.R.R.R.N.Q.W.R.Y.S.S.P.W.T.K.C}$PEPTIDE1,PEPTIDE1,1:R3-25:R3$$$V2.0)",cytotoxicity (growth inhibitory or abnormal effect),[2],no cytotoxicity
same,cytotoxicity (growth inhibitory or abnormal effect),[3],no cytotoxicity
SIIFRIFRRRRR-YSSPWTK (SIIFRIFRRRRRYSSPWTK; OCP9-VGLL1S84-7) [OCP9-VGLLIS84-7],cancer cell growth inhibitory efficacy,[4],concentration-dependent
same,cancer cell growth inhibitory efficacy,[1],concentration-dependent
SIIFRIFLHLQK (OCP1),cell permeability (as concluded from the growth inhibition screening),[1],increased
SIIFRIFLHLQKRRR (OCP5),intracellular permeability (amount of FITC in the cells),cell line NUGC3,significantly increased
same,cell permeability (as concluded from the growth inhibition screening),[1],increased
same,cancer cell growth inhibitory effect,[1],increased
same,effect on tumor formation compared to the vehicle group,[5],did not affect the tumor formation
RRRRRGDSIIF (OCP13),cancer cell growth inhibitory effect,[1],excluding
KKKKRKVSIIFIRGD (OCP16),cancer cell growth inhibitory effect,[1],excluding
"CC[C@H](C)[C@@H]1NC(=O)[C@H](CCCNC(=N)N)NC(=O)[C@H](Cc2ccccc2)NC(=O)[C@H]([C@@H](C)CC)NC(=O)[C@H]([C@@H](C)CC)NC(=O)[C@H](CO)NC(=O)[C@@H](N)CSSC[C@@H](C(=O)O)NC(=O)[C@H](CCCCN)NC(=O)[C@H]([C@@H](C)O)NC(=O)[C@H](Cc2c[nH]c3ccccc23)NC(=O)[C@@H]2CCCN2C(=O)[C@H](CO)NC(=O)[C@H](CO)NC(=O)[C@H](Cc2ccc(O)cc2)NC(=O)[C@H](CCCNC(=N)N)NC(=O)[C@H](CCCNC(=N)N)NC(=O)[C@H](CCCNC(=N)N)NC(=O)[C@H](CCCNC(=N)N)NC(=O)[C@H](CCCNC(=N)N)NC(=O)[C@H](Cc2ccccc2)NC1=O [OCP9-VGLL1S84-7CC, CSIIFRIFRRRRR-YSSPWTKC] (HELM PEPTIDE1{C.S.I.I.F.R.I.F.R.R.R.R.R.Y.S.S.P.W.T.K.C}$PEPTIDE1,PEPTIDE1,1:R3-21:R3$$$V2.0)",cytotoxicity (growth inhibitory or abnormal effect),[2],no cytotoxicity
same,cytotoxicity (growth inhibitory or abnormal effect),[3],no cytotoxicity
